The results in this text go back to US20230107642A1 (Erasca, Inc., priority 2020, published 2023).

Structures are written as SMILES.

The assay addresses T1, Cys12 of the KRAS 4B G12C protein (Homo sapiens, UniProt P01116, G12C).
T1 construct: This protein contained 188 amino acids in total, including an N-terminal 6-Histidine tag; made in house; host or cells: E. coli BL21
Kind of assay: In vitro covalent adduct formation (CAF) assay, LC-MS intact mass. The class given is binding. To be noted: 10 uM compound, 60 min. The method in brief: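 GDP-loaded (>95%) His-TEV-tagged KRAS 4B G12C (residues 1–169), 5 μM in TBS pH 7.4, incubated with 10 μM compound (4% DMSO) at 22° C for one hour. Intact-protein LC-MS gave free:adduct ratios, reported as percent protein modified; duplicate runs.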

As to `C=CC(=O)N1CCN(c2nc(=O)n3c4c(c(-c5cc(Cl)c(F)cc5F)c(C(F)(F)F)cc24)SC[C@@H]3CN2CCN(C3CC3)CC2)CC1` (atropisomer, axis not shown) [Example 1356, (3S,10S)-7-(4-acryloylpiperazin-1-yl)-10-(5-chloro-2,4-difluorophenyl)-3-((4-cyclopropylpiperazin-1-yl)methyl)-9-(trifluoromethyl)-2,3-dihydro-5H-[1,4]thiazino[2,3,4-ij]quinazolin-5-one], the “% CAF 10 uM @ 60 min” value is on record as 92.8%.

Consider `C=CC(=O)N1[C@H](C)CN(c2nc(=O)n3c4c(c(-c5cc(Cl)c(F)cc5F)c(C(F)(F)F)cc24)SCC2(COC2)C3)C[C@@H]1C` (atropisomer, axis not shown) [Example 1361a, (R)-8′-((3S,5R)-4-acryloyl-3,5-dimethylpiperazin-1-yl)-11′-(5-chloro-2,4-difluorophenyl)-10′-(trifluoromethyl)-2′H,4′H,6′H-spiro[oxetane-3,3′-[1,4]thiazepino[2,3,4-ij]quinazolin]-6′-one], for which the “% CAF 10 uM @ 60 min” value was 93.3%.

On to `C=CC(=O)N1[C@H](C)CN(c2nc(=O)n3c4c(c(-c5cc(Cl)c(F)cc5F)c(C(F)(F)F)cc24)SCC2(COC2)C3)C[C@@H]1C` (atropisomer, axis not shown) [Example 1361b], for which the “% CAF 10 uM @ 60 min” value was 71.4%.

Consider `C=CC(=O)N1CCN(c2nc(=O)n3c4c(c(-c5cc(Cl)c(F)cc5F)c(C(F)(F)F)cc24)SC[C@@H]3COCOC)CC1` (atropisomer, axis not shown) [Example 1364], for which the “% CAF 10 uM @ 60 min” value is recorded as 98%.

Take `C=CC(=O)N1CCN(c2nc(=O)n3c4c(c(-c5cc(Cl)c(F)cc5F)c(C(F)(F)F)cc24)SC[C@@H]3COCOC)CC1` (atropisomer, axis not shown) [Example 1365]: the “% CAF 10 uM @ 60 min” value came out at 83.7%.

As to `C=CC(=O)N1[C@H](C)CN(c2nc(=O)n3c4c(c(-c5ccc(F)c6cnn(C)c56)c(C(F)(F)F)cc24)SC[C@@H]3COC)C[C@@H]1C` (atropisomer, axis not shown) [Example 1366a, (3S,10S)-7-((3S,5R)-4-acryloyl-3,5-dimethylpiperazin-1-yl)-10-(4-fluoro-1-methyl-1H-indazol-7-yl)-3-(methoxymethyl)-9-(trifluoromethyl)-2,3-dihydro-5H-[1,4]thiazino[2,3,4-ij]quinazolin-5-one], the “% CAF 10 uM @ 60 min” value is recorded as 46.8%.

In the case of `C=CC(=O)N1CCN(c2nc(=O)n3c4c(c(-c5ccc(F)cc5F)c(C(F)(F)F)cc24)SC[C@@H]3COCOC)CC1` (atropisomer, axis not shown) [Example 1367, (3S,10R)-7-(4-acryloylpiperazin-1-yl)-10-(2,4-difluorophenyl)-3-((methoxymethoxy)methyl)-9-(trifluoromethyl)-2,3-dihydro-5H-[1,4]thiazino[2,3,4-ij]quinazolin-5-one], the “% CAF 10 uM @ 60 min” value was found to be 92.4%.

For `C=CC(=O)N1[C@H](C)CN(c2nc(=O)n3c4c(c(-c5cc(Cl)c(F)cc5F)c(C(F)(F)F)cc24)SC[C@@H]3COCOC)C[C@@H]1C` (atropisomer, axis not shown) [Example 1369], the “% CAF 10 uM @ 60 min” value is 64.6%.

Turning to `C=CC(=O)N1[C@H](C)CN(c2nc(=O)n3c4c(c(-c5cc(Cl)c(F)cc5F)c(C(F)(F)F)cc24)SC[C@@H]3COCOC)C[C@@H]1C` (atropisomer, axis not shown) [Example 1370, (3S,10R)-7-((3S,5R)-4-acryloyl-3,5-dimethylpiperazin-1-yl)-10-(5-chloro-2,4-difluorophenyl)-3-((methoxymethoxy)methyl)-9-(trifluoromethyl)-2,3-dihydro-5H-[1,4]thiazino[2,3,4-ij]quinazolin-5-one], the “% CAF 10 uM @ 60 min” value was found to be 94.4%.

Take `C=CC(=O)N1[C@H](C)CN(c2nc(=O)n3c4c(c(-c5cc(Cl)c(F)cc5F)c(C(F)(F)F)cc24)SC[C@@H]3CN(C)C)C[C@@H]1C` (atropisomer, axis not shown) [Example 1375, (3S,10R)-7-((3S,5R)-4-acryloyl-3,5-dimethylpiperazin-1-yl)-10-(5-chloro-2,4-difluorophenyl)-3-((dimethylamino)methyl)-9-(trifluoromethyl)-2,3-dihydro-5H-[1,4]thiazino[2,3,4-ij]quinazolin-5-one]: the “% CAF 10 uM @ 60 min” value is on record as 93.9%.

For the compound `C=CC(=O)N1[C@H](C)CN(c2nc(=O)n3c4c(c(-c5cc(Cl)c(F)cc5F)c(C(F)(F)F)cc24)SC[C@@H]3CN(C)C)C[C@@H]1C` (atropisomer, axis not shown) [Example 1376, (3S,10S)-7-((3S,5R)-4-acryloyl-3,5-dimethylpiperazin-1-yl)-10-(5-chloro-2,4-difluorophenyl)-3-((dimethylamino)methyl)-9-(trifluoromethyl)-2,3-dihydro-5H-[1,4]thiazino[2,3,4-ij]quinazolin-5-one], the “% CAF 10 uM @ 60 min” value turned out to be 83.9%.

As to `C=CC(=O)N1C[C@H](C)N(c2nc(=O)n3c4c(c(-c5cccc6cnn(C)c56)c(C(F)(F)F)cc24)SC[C@@H]3CN2CCN(CC)CC2)C[C@H]1C` (atropisomer, axis not shown) [Example 1381, (3S,10R)-7-((2S,5R)-4-acryloyl-2,5-dimethylpiperazin-1-yl)-3-((4-ethylpiperazin-1-yl)methyl)-10-(1-methyl-1H-indazol-7-yl)-9-(trifluoromethyl)-2,3-dihydro-5H-[1,4]thiazino[2,3,4-ij]quinazolin-5-one], the “% CAF 10 uM @ 60 min” value is recorded as 19.1%.

`C=CC(=O)N1C[C@H](C)N(c2nc(=O)n3c4c(c(-c5cccc6cnn(C)c56)c(C(F)(F)F)cc24)SC[C@@H]3CN2CCN(CC)CC2)C[C@H]1C` (atropisomer, axis not shown) [Example 1382, (3S,10S)-7-((2S,5R)-4-acryloyl-2,5-dimethylpiperazin-1-yl)-3-((4-ethylpiperazin-1-yl)methyl)-10-(1-methyl-1H-indazol-7-yl)-9-(trifluoromethyl)-2,3-dihydro-5H-[1,4]thiazino[2,3,4-ij]quinazolin-5-one]: the “% CAF 10 uM @ 60 min” value was 49.1%.

For the compound `C=CC(=O)N1C[C@H](C)N(c2nc(=O)n3c4c(c(-c5cccc6cnn(C)c56)c(C(F)(F)F)cc24)SC[C@@H]3CN2CCN(C3CC3)CC2)C[C@H]1C` (atropisomer, axis not shown) [Example 1388, (3S,10S)-7-((2S,5R)-4-acryloyl-2,5-dimethylpiperazin-1-yl)-3-((4-cyclopropylpiperazin-1-yl)methyl)-10-(1-methyl-1H-indazol-7-yl)-9-(trifluoromethyl)-2,3-dihydro-5H-[1,4]thiazino[2,3,4-ij]quinazolin-5-one], the “% CAF 10 uM @ 60 min” value worked out at 95.3%.

Turning to `C=CC(=O)N1[C@H](C)CN(c2nc(=O)n3c4c(c(-c5cccc6cnn(C)c56)c(C(F)(F)F)cc24)SC[C@@H]3CN2CCN(CC)CC2)C[C@@H]1C` (atropisomer, axis not shown) [Example 1389, (3S,10S)-7-((3S,5R)-4-acryloyl-3,5-dimethylpiperazin-1-yl)-3-((4-ethylpiperazin-1-yl)methyl)-10-(1-methyl-1H-indazol-7-yl)-9-(trifluoromethyl)-2,3-dihydro-5H-[1,4]thiazino[2,3,4-ij]quinazolin-5-one], the “% CAF 10 uM @ 60 min” value is on record as 69.1%.

For `C=CC(=O)N1CCN(c2nc(=O)n3c4c(c(-c5ccc(F)cc5F)c(C(F)(F)F)cc24)SC[C@@H]3CN2CCN(C3CC3)CC2)CC1` (atropisomer, axis not shown) [Example 1390, (3S,10R)-7-(4-acryloylpiperazin-1-yl)-3-((4-cyclopropylpiperazin-1-yl)methyl)-10-(2,4-difluorophenyl)-9-(trifluoromethyl)-2,3-dihydro-5H-[1,4]thiazino[2,3,4-ij]quinazolin-5-one], the “% CAF 10 uM @ 60 min” value is 96.7%.

With `C=CC(=O)N1CCN(c2nc(=O)n3c4c(c(-c5ccc(F)cc5F)c(C(F)(F)F)cc24)SC[C@@H]3CN2CCN(C3CC3)CC2)CC1` (atropisomer, axis not shown) [Example 1391, (3S,10S)-7-(4-acryloylpiperazin-1-yl)-3-((4-cyclopropylpiperazin-1-yl)methyl)-10-(2,4-difluorophenyl)-9-(trifluoromethyl)-2,3-dihydro-5H-[1,4]thiazino[2,3,4-ij]quinazolin-5-one], the “% CAF 10 uM @ 60 min” value stood at 95.9%.

`[2H]C([2H])=C([2H])C(=O)N1[C@H](C)CN(c2nc(=O)n3c4c(c(-c5cc(Cl)c(F)cc5F)c(C(F)(F)F)cc24)SC[C@@H]3COC)C[C@@H]1C` (atropisomer, axis not shown) [Example 1392, (3S,10S)-7-((3S,5R)-4-(acryloyl-d3)-3,5-dimethylpiperazin-1-yl)-10-(5-chloro-2,4-difluorophenyl)-3-(methoxymethyl)-9-(trifluoromethyl)-2,3-dihydro-5H-[1,4]thiazino[2,3,4-ij]quinazolin-5-one]: the “% CAF 10 uM @ 60 min” value is given as 64.9%.

`C=CC(=O)N1CCN(c2nc(=O)n3c4c(c(-c5ccc(F)c6cnn(C)c56)c(C(F)(F)F)cc24)SC[C@@H]3COC)CC1` (atropisomer, axis not shown) [Example 1392a, (3S,10S)-7-(4-acryloylpiperazin-1-yl)-10-(4-fluoro-1-methyl-1H-indazol-7-yl)-3-(methoxymethyl)-9-(trifluoromethyl)-2,3-dihydro-5H-[1,4]thiazino[2,3,4-ij]quinazolin-5-one]: the “% CAF 10 uM @ 60 min” value is recorded as 97.2%.

`[2H]C([2H])=C([2H])C(=O)N1[C@H](C)CN(c2nc(=O)n3c4c(c(-c5cc(Cl)c(F)cc5F)c(C(F)(F)F)cc24)SC[C@@H]3COC)C[C@@H]1C` (atropisomer, axis not shown) [Example 1393, (3S,10R)-7-((3S,5R)-4-(acryloyl-d3)-3,5-dimethylpiperazin-1-yl)-10-(5-chloro-2,4-difluorophenyl)-3-(methoxymethyl)-9-(trifluoromethyl)-2,3-dihydro-5H-[1,4]thiazino[2,3,4-ij]quinazolin-5-one]: the “% CAF 10 uM @ 60 min” value was found to be 95.4%.
